# Experiment: Induction of endotoxin shock in the mouse
# Conditions: in vivo, read-out: LD₅₀
# From the text: The test method is essentially as described in GB 2'179'945 A and DE 37'30'905.
structure (smiles),measurement,value
"CCCCCCC(=O)N[C@H](CCC(=O)N[C@H](/C=C/CC(O)C(=O)OCCCC)C(=O)N[C@@H](C)C(=O)OCC)C(=O)OCc1ccccc1 (stereo partly drawn) [Example 1, {N-[N′-Heptanoyl-(R)-γ-glutamyl-(α-benzylester)]-(R)-α-[2-(RS)-hydroxypent-4-enoic acid butyl ester-5-yl]glycyl]-(S)-alanine ethyl ester]",LD50,12 mg/kg
